Experiments:
[1] = test system: IBS (6 yrs duration); test: Improvement of IBS in patients given L-glutamine alone or L-glutamine/PAK; format: in vivo
Description: (§1) [table] While the compositions of the invention have been tested on patients suffering from disorders affecting the intestinal mucosa, the methods of the invention are appropriate for use in treating other diseases wherein stimulation of cell growth or repair of cells with natural rapid turn-over is desirable. Such diseases include, but are not limited to, leaky gut syndrome and other diseases of maldigestion, chronic fatigue syndrome, fibromyalgia, diabetes, thyroiditis and chronic viral disease. The combination therapy described herein will, by enhancing the growth and the repair of intestinal cells, increase the ability of the intestinal wall to reject and neutralize parasites and inhibit overgrowth of fungal organisms.

[2] = test system: Ileitis (9 yrs duration); test: Improvement of ileitis in patients given L-glutamine alone or L-glutamine/PAK; format: in vivo
Description: as §1

NC(=O)CC[C@H](N)C(=O)O [L-glutamine]
percent of improvement upon administration of the L-glutamine alone ([1]; dose 3 gm L-glutamine): none | percent of improvement upon administration of the L-glutamine alone ([1]; dose 15 gm L-glutamine): 25% | percent of improvement upon administration of the L-glutamine alone ([1]; dose 30 gm L-glutamine): 45% | percent of improvement upon administration of the L-glutamine alone ([1]; dose 60 gm L-glutamine): 85% | percent of improvement upon administration of the L-glutamine alone ([2]; dose 3 gm L-glutamine): 5% | percent of improvement upon administration of the L-glutamine alone ([2]; dose 15 gm L-glutamine): 20% | percent of improvement upon administration of the L-glutamine alone ([2]; dose 30 gm L-glutamine): 50% | percent of improvement upon administration of the L-glutamine alone ([2]; dose 60 gm L-glutamine): 90%

Reference: patent publication US20020188010A1, “Compositions of matter containing L-glutamine and pyridoxal-alpha-ketoglutarate” (priority 2001, published 2002)
